Assay results published in patent US20020026053A1, “Novel 3-(substituted) -2- indolinones compounds and use thereof as inhibitors of protein kinase activity” (priority 1997, published 2002).

Test system: FLK-1 receptor
Assay: FLK-1 Assay (cellular/catalytic ELISA, VEGF-stimulated phosphotyrosine)
Type: cell-based
Parameters: concentration or dose not given beside the values
Conditions: protocol P.110
Summary of the method: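 Receptor phosphotyrosine ELISA: Flk-1-expressing NIH3T3 C7#3 cells, starved overnight in 0.1% FBS medium, received compound (1:200 final dilution, 0.5% DMSO) for 2 h at 37 °C, then VEGF. Anti-FLK-1-captured receptor was probed with anti-phosphotyrosine UB40 and peroxidase/ABTS read-out, relative to cells without compound.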

Compound | Flk Kinase % Inhibition (P.110) [%]
Cc1c(Br)cc(Br)c2c1C(=Cc1cccc(F)c1)C(=O)N2 [10736/H07] | 17.8
Cc1c(Br)cc(Br)c2c1C(=Cc1ccccc1F)C(=O)N2 [10736/H08] | 15.8
CCc1ccc(C=C2C(=O)Nc3c(Br)cc(Br)c(C)c32)cc1 [10736/H09] | 13.2
COc1cccc(C=C2C(=O)Nc3c(Br)cc(Br)c(C)c32)c1 [10736/H10] | 2.1
Cc1c(Br)cc(Br)c2c1C(=Cc1ccccc1Cl)C(=O)N2 [10736/H11] | 17.6
CCOc1ccc(C=C2C(=O)Nc3c(Br)cc(Br)cc32)cc1 [10737/A02] | −5.5
Cc1ccc(C=C2C(=O)Nc3c(Br)cc(Br)cc32)c(C)c1 [10737/A03] | −1.2
O=C1Nc2c(Br)cc(Br)cc2C1=Cc1cc(F)ccc1F [10737/A04] | −0.4
O=C1Nc2c(Br)cc(Br)cc2C1=Cc1cccc(F)c1F [10737/A05] | −2.0
COc1ccc(C=C2C(=O)Nc3c(Br)cc(Br)cc32)cc1F [10737/A06] | −20.3
Cc1ccc(C)c(C=C2C(=O)Nc3c(Br)cc(Br)cc32)c1 [10737/A07] | 3.4
O=C1Nc2c(Br)cc(Br)cc2C1=Cc1ccc2ccccc2c1 [10737/A08] | 4.9
O=C1Nc2c(Br)cc(Br)cc2C1=Cc1ccc(Oc2ccccc2)cc1 [10737/A09] | −10.1
CC(C)(C)c1ccc(Oc2cccc(C=C3C(=O)Nc4c(Br)cc(Br)cc43)c2)cc1 [10737/A10] | 6.0
O=C1Nc2c(Br)cc(Br)cc2C1=Cc1cccc(Oc2cccc(C(F)(F)F)c2)c1 [10737/A11] | 6.2
CCOc1ccc(C=C2C(=O)Nc3ccc(I)cc32)cc1 [10737/B02] | −3.0
Cc1ccc(C=C2C(=O)Nc3ccc(I)cc32)c(C)c1 [10737/B03] | 7.0
O=C1Nc2ccc(I)cc2C1=Cc1cc(F)ccc1F [10737/B04] | −8.2
O=C1Nc2ccc(I)cc2C1=Cc1cccc(F)c1F [10737/B05] | −4.6

Compound | Flk Kinase % Inhibition (P.110) [%]
COc1ccc(C=C2C(=O)Nc3ccc(I)cc32)cc1F [10737/B06] | 3.6
Cc1ccc(C)c(C=C2C(=O)Nc3ccc(I)cc32)c1 [10737/B07] | 10.5
O=C1Nc2ccc(I)cc2C1=Cc1ccc2ccccc2c1 [10737/B08] | 12.2
O=C1Nc2ccc(I)cc2C1=Cc1ccc(Oc2ccccc2)cc1 [10737/B09] | 17.5
CC(C)(C)c1ccc(Oc2cccc(C=C3C(=O)Nc4ccc(I)cc43)c2)cc1 [10737/B10] | 17.1
O=C1Nc2ccc(I)cc2C1=Cc1cccc(Oc2cccc(C(F)(F)F)c2)c1 [10737/B11] | 12.8
CCOc1ccc(C=C2C(=O)Nc3ccc(Br)c(C)c32)cc1 [10737/C02] | −2.9
Cc1ccc(C=C2C(=O)Nc3ccc(Br)c(C)c32)c(C)c1 [10737/C03] | 10.1
Cc1c(Br)ccc2c1C(=Cc1cc(F)ccc1F)C(=O)N2 [10737/C04] | −20.1
Cc1c(Br)ccc2c1C(=Cc1cccc(F)c1F)C(=O)N2 [10737/C05] | −3.3
COc1ccc(C=C2C(=O)Nc3ccc(Br)c(C)c32)cc1F [10737/C06] | 8.7
Cc1ccc(C)c(C=C2C(=O)Nc3ccc(Br)c(C)c32)c1 [10737/C07] | 1.6
Cc1c(Br)ccc2c1C(=Cc1ccc3ccccc3c1)C(=O)N2 [10737/C08] | 8.9
Cc1c(Br)ccc2c1C(=Cc1ccc(Oc3ccccc3)cc1)C(=O)N2 [10737/C09] | 8.4
Cc1c(Br)ccc2c1C(=Cc1cccc(Oc3ccc(C(C)(C)C)cc3)c1)C(=O)N2 [10737/C10] | 16.0
Cc1c(Br)ccc2c1C(=Cc1cccc(Oc3cccc(C(F)(F)F)c3)c1)C(=O)N2 [10737/C11] | 13.3
CCOc1ccc(C=C2C(=O)Nc3ccc(S(=O)(=O)NC)cc32)cc1 [10737/D02] | 10.6
CNS(=O)(=O)c1ccc2c(c1)C(=Cc1ccc(C)cc1C)C(=O)N2 [10737/D03] | 12.1
CNS(=O)(=O)c1ccc2c(c1)C(=Cc1cc(F)ccc1F)C(=O)N2 [10737/D04] | 12.0

Compound | Flk Kinase % Inhibition (P.110) [%]
CNS(=O)(=O)c1ccc2c(c1)C(=Cc1cccc(F)c1F)C(=O)N2 [10737/D05] | 8.9
CNS(=O)(=O)c1ccc2c(c1)C(=Cc1ccc(OC)c(F)c1)C(=O)N2 [10737/D06] | 13.0
CNS(=O)(=O)c1ccc2c(c1)C(=Cc1cc(C)ccc1C)C(=O)N2 [10737/D07] | 12.9
CNS(=O)(=O)c1ccc2c(c1)C(=Cc1ccc3ccccc3c1)C(=O)N2 [10737/D08] | 15.3
CNS(=O)(=O)c1ccc2c(c1)C(=Cc1ccc(Oc3ccccc3)cc1)C(=O)N2 [10737/D09] | 13.9
CNS(=O)(=O)c1ccc2c(c1)C(=Cc1cccc(Oc3ccc(C(C)(C)C)cc3)c1)C(=O)N2 [10737/D10] | 23.2
CNS(=O)(=O)c1ccc2c(c1)C(=Cc1cccc(Oc3cccc(C(F)(F)F)c3)c1)C(=O)N2 [10737/D11] | 17.2
CCOc1ccc(C=C2C(=O)Nc3ccc(S(=O)(=O)Nc4ccc(C(F)(F)F)cc4)cc32)cc1 [10737/E02] | 14.3
Cc1ccc(C=C2C(=O)Nc3ccc(S(=O)(=O)Nc4ccc(C(F)(F)F)cc4)cc32)c(C)c1 [10737/E03] | 17.9
O=C1Nc2ccc(S(=O)(=O)Nc3ccc(C(F)(F)F)cc3)cc2C1=Cc1cc(F)ccc1F [10737/E04] | 16.1
O=C1Nc2ccc(S(=O)(=O)Nc3ccc(C(F)(F)F)cc3)cc2C1=Cc1cccc(F)c1F [10737/E05] | 14.9
COc1ccc(C=C2C(=O)Nc3ccc(S(=O)(=O)Nc4ccc(C(F)(F)F)cc4)cc32)cc1F [10737/E06] | 11.1
Cc1ccc(C)c(C=C2C(=O)Nc3ccc(S(=O)(=O)Nc4ccc(C(F)(F)F)cc4)cc32)c1 [10737/E07] | 20.1
O=C1Nc2ccc(S(=O)(=O)Nc3ccc(C(F)(F)F)cc3)cc2C1=Cc1ccc2ccccc2c1 [10737/E08] | 21.3
O=C1Nc2ccc(S(=O)(=O)Nc3ccc(C(F)(F)F)cc3)cc2C1=Cc1ccc(Oc2ccccc2)cc1 [10737/E09] | 11.9
CC(C)(C)c1ccc(Oc2cccc(C=C3C(=O)Nc4ccc(S(=O)(=O)Nc5ccc(C(F)(F)F)cc5)cc43)c2)cc1 [10737/E10] | 18.9
O=C1Nc2ccc(S(=O)(=O)Nc3ccc(C(F)(F)F)cc3)cc2C1=Cc1cccc(Oc2cccc(C(F)(F)F)c2)c1 [10737/E11] | 18.3
CCOc1ccc(C=C2C(=O)Nc3ccc(S(=O)(=O)N4CCOCC4)cc32)cc1 [10737/F02] | 15.1
Cc1ccc(C=C2C(=O)Nc3ccc(S(=O)(=O)N4CCOCC4)cc32)c(C)c1 [10737/F03] | 16.3
